{
  "source": "paper PMC9598926",
  "about": "“Design and Synthesis of (Z)-5-(Substituted benzylidene)-3-cyclohexyl-2-thioxothiazolidin-4-one Analogues as Anti-Tyrosinase and Antioxidant Compounds: In Vitro and In Silico Insights” (Antioxidants, 2022)",
  "assay_type_in_all_cases": "cell-based, murine",
  "key": {"[1]": {"tested_on": "tyrosinase", "assay": "RT-qPCR of tyrosinase mRNA in α–MSH/IBMX stimulated B16F10 cells", "procedure": "2.17. RNA Extraction and Quantitative Real Time-Polymerase Chain Reaction (RT-qPCR)\nB16F10 cells were extracted using GeneAll RiboEx Total RNA extraction reagent (GeneAll Biotechnology, Seoul, Korea) and transferred to tubes, added with chloroform (0.1 mL), shaken vigorously for 30 sec, and centrifuged for 15 min at 12,000× g. Aqueous phases were transferred to fresh tubes, and equal volumes of isopropanol were added. Samples were then incubated at 4 °C for 10 min and centrifuged for 15 min at 12,000× g at 4 °C. Supernatants were discarded, and RNA pellets were washed once with 0.8 mL of 70% ethanol and by vortexing briefly and centrifuged for 5 min at 7500× g at 4 °C. Pellets were dried at 56 °C for 10–15 min and dissolved in 30 µL of diethyl pyrocarbonate (DEPC)-treated water. The levels of RNA were determined by a Nanodrop spectrophotometer (NANO-200, Allsheng, Hangzhou, China). Complementary DNA (cDNA) was synthesized from total RNA (2 µg) using SuPrime Script RT Premix (with random hexamer) cDNA Synthesis Kit (GeNet Bio, Daejeon, Korea). […]\nTo further investigate the anti-melanogenesis mechanism of analog 3, we examined its effect on the expressions of melanogenesis-associated genes and levels of melanogenesis-associated proteins in B16F10 cells. […] Nuclear levels of MITF protein were measured by Western blotting in α–MSH/IBMX-stimulated B16F10 cells. […]"}, "[2]": {"biological_target": "T1, B16F10 cellular tyrosinase (Mus musculus, UniProt P11344)", "T1 construct": "B16F10 murine melanoma cells were used as a cellular tyrosinase source; endogenous in cells; host or cells: B16F10 murine melanoma cells (ATCC)", "T1 sequence (P11344 19-533)": "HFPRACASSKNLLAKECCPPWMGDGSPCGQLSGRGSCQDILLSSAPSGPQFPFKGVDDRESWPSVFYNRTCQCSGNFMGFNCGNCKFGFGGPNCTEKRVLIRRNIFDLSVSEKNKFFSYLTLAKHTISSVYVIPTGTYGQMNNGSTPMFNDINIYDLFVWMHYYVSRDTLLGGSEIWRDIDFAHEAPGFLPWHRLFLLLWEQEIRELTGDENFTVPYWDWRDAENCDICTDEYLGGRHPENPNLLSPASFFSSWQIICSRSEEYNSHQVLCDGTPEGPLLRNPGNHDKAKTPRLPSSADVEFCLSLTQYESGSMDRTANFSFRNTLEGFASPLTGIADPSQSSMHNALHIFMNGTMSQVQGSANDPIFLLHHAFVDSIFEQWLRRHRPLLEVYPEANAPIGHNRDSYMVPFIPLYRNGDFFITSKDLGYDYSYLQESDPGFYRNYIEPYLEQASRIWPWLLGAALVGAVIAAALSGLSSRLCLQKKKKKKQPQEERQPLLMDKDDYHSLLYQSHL", "assay": "Cellular tyrosinase activity assay in α–MSH plus IBMX stimulated B16F10 cells", "conditions": "5, 10, 20 µM, 72 h", "protocol": "Cellular Tyrosinase Activity Assay\nBriefly, cultured B16F10 cells were seeded in 6-well culture plate at 1 × 10^4 cells/well and incubated for 12 h under cell culture conditions to allow them to adhere to well bottoms. […] Cells were then washed with PBS twice and exposed to a lysis buffer solution (100 µL) comprised of 5 µL of 20% Triton X-100, 5 µL of 2 mM PMSF, and 90 µL of 50 mM phosphate buffer in pH 6.5. Lysates were kept at −80 °C for 30 min, defrosted, and centrifuged at 12,000 rpm for 30 min at 4 °C. Supernatants (80 µL) were mixed with 20 µL of 2 mg/mL of L-dopa in a 96-well plate, and absorbance of each well was measured at 475 nm every 10 min for 1 h at 37 °C using a microplate reader (VersaMax®, Molecular Devices, Sunnyvale, CA, USA). Experiments were performed independently 3 times.\nCellular tyrosinase activities were determined by measuring optical densities at 475 nm."}, "[3]": {"tested_on": "MITF", "assay": "Western blot of nuclear MITF in α–MSH/IBMX stimulated B16F10 cells", "conditions": "5, 10, 20 µM", "procedure": "2.15. Extraction of Cytosolic and Nuclear Proteins from Cells\nWestern blotting was used to determine tyrosinase and MITF protein levels. Briefly, B16F10 cells were seeded in 60 mm culture dishes in the presence or absence of α–MSH (1 µM) plus IBMX (200 µM) with or without analog 3 (5, 10, and 20 µM for final concentrations) for 24 h, washed twice with ice-cold PBS and centrifuged for 10 min at 12,000× g. Cell pellets were suspended in 10 mM Tris (pH 8.0) containing 0.1% NP-40, 1 mM DTT, 1.5 mM MgCl2, 1 mM PMSF, and protease inhibitors (GenDEPOT, Barker, TX, USA), incubated on ice for 15 min, and centrifuged for 10 min at 12,000× g at 4 °C. Supernatants were used as cytosolic fractions. […] The protein concentrations were determined using a bicinchoninic acid (BCA)™ assay kit (Pierce, Rockford, IL, USA). […]\nLysed protein samples from cells were boiled for 10 min in sample-loading buffer (0.1% bromophenol blue, 25% glycerol, 60 mM Tris-HCl (pH 6.8), 2% SDS, and 0.5% β-mercaptoethanol) at a volume ratio of 1:4. […] Immunoreactive proteins were detected using the enhanced chemiluminescence (ECL) detection reagent in the SuperSignal® West Pico Chemiluminescent Substrate kit (Advansta, San Jose, CA, USA). Western blot bands were visualized using a Davinch-Chemi imager™ (Davinch-K, Seoul, Korea), and quantification was conducted by densitometric analysis using CS analyzer software ver. […]"}},
  "data": [
    {"smiles": "O=C1/C(=C/c2ccc(O)cc2O)SC(=S)N1C1CCCCC1", "note": "[Analog 3, (Z)-3-Cyclohexyl-5-(2,4-dihydroxybenzylidene)-2-thioxothiazolidin-4-one]", "values": [
      {"measurement": "effect on expression of tyrosinase (mRNA)", "setting": "[1]; α–MSH/IBMX stimulated", "value": "significantly and concentration-dependently decreased"},
      {"measurement": "tyrosinase gene expression", "setting": "[1]; α–MSH/IBMX stimulated (3.3-fold), 5 µM", "value": 2.6, "unit": "fold"},
      {"measurement": "effect on α–MSH plus IBMX induced increase in cellular tyrosinase activity", "setting": "[2]", "value": "significantly and dose-dependently reduced"},
      {"measurement": "effect on α–MSH/IBMX-induced increases in MITF levels (nuclear protein)", "setting": "[3]", "value": "significantly and concentration-dependently suppressed"}
    ]}
  ]
}
